Our source for the IC50 values is ChEMBL document CHEMBL3727349, “Thieno- and furo - pyrimidines and pyridines, useful as potassium channel inhibitors” (2013).

The target in this experiment is T1, Kir3.1/Kir3.4 (Rattus norvegicus, UniProt P48548+P63251).
T1 sequence (P63251 whole entry): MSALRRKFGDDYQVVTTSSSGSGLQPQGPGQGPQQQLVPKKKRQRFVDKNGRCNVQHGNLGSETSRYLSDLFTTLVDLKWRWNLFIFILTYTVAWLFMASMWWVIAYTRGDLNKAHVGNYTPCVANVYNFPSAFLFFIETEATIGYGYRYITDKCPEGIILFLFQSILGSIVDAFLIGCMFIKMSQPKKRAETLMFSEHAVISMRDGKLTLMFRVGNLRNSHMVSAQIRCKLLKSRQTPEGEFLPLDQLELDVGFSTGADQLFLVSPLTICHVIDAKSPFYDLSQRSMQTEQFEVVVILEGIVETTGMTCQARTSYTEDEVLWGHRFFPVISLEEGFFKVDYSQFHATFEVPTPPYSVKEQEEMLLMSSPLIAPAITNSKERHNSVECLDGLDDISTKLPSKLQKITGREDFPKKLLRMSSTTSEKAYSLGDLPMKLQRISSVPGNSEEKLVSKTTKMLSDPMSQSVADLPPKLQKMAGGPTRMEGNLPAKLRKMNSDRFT
T1 sequence (P48548 whole entry): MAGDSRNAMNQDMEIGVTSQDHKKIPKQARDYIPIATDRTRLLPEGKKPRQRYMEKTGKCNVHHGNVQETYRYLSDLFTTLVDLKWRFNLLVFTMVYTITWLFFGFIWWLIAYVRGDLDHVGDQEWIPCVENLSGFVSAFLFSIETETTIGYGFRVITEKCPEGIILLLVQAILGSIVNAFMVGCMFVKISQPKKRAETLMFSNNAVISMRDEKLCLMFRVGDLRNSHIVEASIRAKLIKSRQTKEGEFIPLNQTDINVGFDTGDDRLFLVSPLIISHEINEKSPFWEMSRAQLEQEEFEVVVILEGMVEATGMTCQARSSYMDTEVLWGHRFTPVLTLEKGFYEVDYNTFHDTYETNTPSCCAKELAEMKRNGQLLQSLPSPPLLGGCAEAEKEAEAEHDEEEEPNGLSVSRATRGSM
As to the kind of experiment: Inhibition of rat Kir3.1/Kir3.4 expressed in HEK293 cells assessed as reduction in depolarizing voltage step-induced recombinant G-protein activated inward rectifier current by whole cell patch clamp assay. It counts as cell-based. For orientation: Patch clamp records ionic current or voltage across a cell membrane.

For `CN(C)CCOCC1CCN(c2ncnc3scc(-c4ccccc4)c23)CC1`, the concentration for half-maximal inhibition (IC50) (as a rule, the concentration needed to halve the response being measured) was less than 500 nM.
With `F[C@H]1CCN(CCOCC2C3CN(c4ncnc5scc(-c6ccccc6)c45)CC23)C1` (some centres not stated) the figure was less than 500 nM; with `NC(=O)[C@H]1CCCN1CCOCC1C2CN(c3ncnc4scc(-c5ccccc5)c34)CC12` (some centres not stated), less than 500 nM.
Take `c1ccc(-c2csc3ncnc(N4CCC(COCCN5CC6CC5CO6)CC4)c23)cc1` (configuration not stated): the half-inhibitory concentration (IC50) is less than 500 nM.
With `Cc1sc2ncnc(N3CCC(COCCC4CCCN4C)CC3)c2c1C` (configuration not stated) the figure was less than 500 nM; with `CC(C)c1cc2c(N3CCC(COCCN4CCOCC4)CC3)ncnc2s1`, no more than 3000 nM; with `NC(=O)C1CCCN1CCOCC1CCN(c2ncnc3scc(-c4ccccc4)c23)CC1` (configuration not stated), less than 500 nM.
With `CN1CCC(OCC2CCN(c3ncnc4scc(-c5ccccc5)c34)CC2)C1` (configuration not stated) the figure was less than 500 nM.
With `CN1CCCC1CCOCC1CCN(c2ncnc3scc(-c4ccccc4)c23)CC1` (configuration not stated) the figure was less than 500 nM.
As for `c1ccc(-c2csc3ncnc(N4CC5C(COCCN6CCCC6)C5C4)c23)cc1` (configuration not stated), the IC50 is less than 500 nM.
The figure for `COc1ncccc1-c1csc2ncnc(N3CCC(COCCN4CCCC4)CC3)c12` is less than 500 nM; for `CN1CCC(OCC2CCN(c3ncnc4scc(-c5ccccc5)c34)CC2)CC1` it is less than 500 nM; for `CN1CCCC1CCOCC1C2CN(c3ncnc4scc(-c5ccccc5)c34)CC12` (configuration not stated) it is less than 500 nM.
With `NC(=O)C1CCN(CCOCC2CCN(c3ncnc4scc(-c5ccccc5)c34)CC2)C1` (configuration not stated) the figure was less than 500 nM; with `CCc1c(C)sc2ncnc(N3CCC(COCCC4CCCCN4C)CC3)c12` (configuration not stated), less than 500 nM; with `NC(=O)[C@@H]1CCCN1CCOCC1C2CN(c3ncnc4scc(-c5ccccc5)c34)CC12` (some centres not stated), less than 500 nM.
With `Fc1cccc(-c2csc3ncnc(N4CCC(COCCN5CCCC5)CC4)c23)c1` the figure was less than 500 nM.
Consider `FC1(F)CCN(CCOCC2CCN(c3ncnc4scc(-c5ccccc5)c34)CC2)C1`, for which the IC50 was less than 500 nM.
The figure for `c1ccc(-c2csc3ncnc(N4CCC(COCCN5CCOCC5)CC4)c23)cc1` is less than 500 nM; for `CC(=O)NC1CCN(CCOCC2CCN(c3ncnc4scc(-c5ccccc5)c34)CC2)C1` (configuration not stated) it is less than 500 nM; for `CN1CCCC1CCOCC1CCN(c2ncnc3scc(-c4cccc(F)c4)c23)CC1` (configuration not stated) it is less than 500 nM.
As to `F[C@@H]1CCN(CCOCC2C3CN(c4ncnc5scc(-c6ccccc6)c45)CC23)C1` (some centres not stated), the half-inhibitory concentration (IC50) was less than 500 nM.
With `CN1CCCCC1CCOCC1CCN(c2ncnc3scc(-c4ccccc4)c23)CC1` (configuration not stated) the figure was less than 500 nM; with `Fc1ccc(-c2csc3ncnc(N4CCC(COCCN5CCCC5)CC4)c23)cc1`, less than 500 nM; with `CCc1c(C)sc2ncnc(N3CCC(COCCN4CCCC4)CC3)c12`, less than 500 nM.
With `F[C@H]1CCN(CCOCC2CCN(c3ncnc4scc(-c5ccccc5)c34)CC2)C1` the figure was less than 500 nM; with `CN(C)CCCOCC1CCN(c2ncnc3scc(-c4ccccc4)c23)CC1`, less than 500 nM.
